{"source": "paper PMC10382584", "about": "“Macrocyclization of linear molecules by deep learning to facilitate macrocyclic drug candidates discovery” (Nature Communications, 2023)", "key": {"DSS-induced colitis mice": {"system": "DSS-induced colitis mice", "test": "In vivo efficacy study, DSS-induced colitis model", "parameters": "species or system male BALB/c mice", "experimental": "Model mice were divided into four groups and eight mice were included in each group on day 8. […] Meanwhile, solvent was given intragastrically to the control group and model group. On day 15, the mice were sacrificed, and the length and weight of each colon were measured.\nBody weight, the stool consistency, and the presence of blood in feces were recorded daily in the morning. […] The maximum score was 9, which was the sum of the scores. About 1-cm colon tissue, which is 0.5 cm away from the anal margin, was collected, and the ileocecal area was used for histopathological examination. After H&E staining, the tissues were scored under single-blind conditions to evaluate the levels of inflammation and tissue damage in the colons following the criteria proposed by ref. [62]. Statistical analyses were performed using SPSS v24.0."}, "JAK2": {"biological_target": "T1, JAK2 (Homo sapiens, UniProt O60674)", "T1 construct": "0.05–0.42 ng JAK2, 2 μM peptide substrate (Tyr06)", "T1 sequence (O60674 whole entry)": "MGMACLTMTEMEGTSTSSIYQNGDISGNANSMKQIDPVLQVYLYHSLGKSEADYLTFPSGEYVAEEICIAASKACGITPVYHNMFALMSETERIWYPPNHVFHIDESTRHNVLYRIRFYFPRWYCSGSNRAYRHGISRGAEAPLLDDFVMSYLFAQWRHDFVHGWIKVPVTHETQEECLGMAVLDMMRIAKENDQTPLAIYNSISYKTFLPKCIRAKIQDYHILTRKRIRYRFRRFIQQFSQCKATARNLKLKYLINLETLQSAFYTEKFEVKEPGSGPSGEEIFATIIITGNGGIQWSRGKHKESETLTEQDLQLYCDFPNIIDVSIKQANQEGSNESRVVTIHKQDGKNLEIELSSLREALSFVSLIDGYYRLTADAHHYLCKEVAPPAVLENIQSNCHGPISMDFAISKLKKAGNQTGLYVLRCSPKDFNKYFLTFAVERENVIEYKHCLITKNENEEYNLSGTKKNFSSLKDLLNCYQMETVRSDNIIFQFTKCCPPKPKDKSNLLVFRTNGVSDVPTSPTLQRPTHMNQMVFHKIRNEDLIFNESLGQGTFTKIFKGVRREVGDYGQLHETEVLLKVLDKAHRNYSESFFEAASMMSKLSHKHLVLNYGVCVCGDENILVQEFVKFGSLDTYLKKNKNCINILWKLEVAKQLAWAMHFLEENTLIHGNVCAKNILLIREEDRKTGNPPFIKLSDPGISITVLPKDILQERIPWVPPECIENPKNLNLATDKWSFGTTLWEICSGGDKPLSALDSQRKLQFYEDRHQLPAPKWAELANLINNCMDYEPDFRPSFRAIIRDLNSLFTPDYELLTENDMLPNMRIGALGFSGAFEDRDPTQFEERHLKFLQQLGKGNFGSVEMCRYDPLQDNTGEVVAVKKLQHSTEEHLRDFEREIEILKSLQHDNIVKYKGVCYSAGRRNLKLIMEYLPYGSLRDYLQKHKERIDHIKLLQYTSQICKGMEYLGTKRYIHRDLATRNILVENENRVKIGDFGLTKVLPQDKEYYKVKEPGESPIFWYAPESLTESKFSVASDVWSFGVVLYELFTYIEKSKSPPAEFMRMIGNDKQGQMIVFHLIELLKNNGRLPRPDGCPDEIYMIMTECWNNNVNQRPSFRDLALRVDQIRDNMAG", "test": "JAK2 enzyme assay (Z'-LYTE kinase assay kit)", "format": "biochemical", "experimental": "JAK kinase activity assays were performed using Z’-LYTETM kinase assay kit (Life Technologies, pv4122). […] The mixture was added into the 384-well microplate, shaken gently, and then incubated at room temperature for 1 h. Subsequently, 5 μL development solution was added to the well for incubating another 1 h. Finally, 5 μL stop reagent was added to stop the reaction. […] IC50 values were calculated using GraphPad Prism v8.0.3, and three parallel experiments were performed."}, "In vivo PK study in mice": {"test": "In vivo PK study in mice;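 on all read-outs here: mice dosed intravenously or orally, three animals per time point, plasma drug levels quantified by LC-MS/MS, PK parameters derived by noncompartmental analysis in Phoenix WinNonLin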", "details": "for concentration at time point (concentration-time data, Supplementary Fig. 8): individual mice 1-3; for AUCinf / Cmax / T1/2 / Tmax: mice", "experimental": "The mice were separately administered to a group of three mice per time point for intravenous (5 mg/kg) or oral administration (5 mg/kg). […] Then the samples were separated by centrifugation and analyzed by LC-MS/MS (XEVO TQ-S) to determine the plasma drug concentrations. The PK parameters were calculated using the noncompartment model with Phoenix WinNonLin v8.0. The animal experimental procedures were approved by the Medicine Research Ethics Committee of Hangzhou Leading Pharmatech Co., Ltd."}, "HEL cells": {"system": "HEL cells", "test": "Cell proliferation assay (CCK-8), HEL cells", "format": "cell-based, human", "details": "for Inhibition (%): single wells, replicates 1 and 2"}}, "note": "Where “and” joins values, the source holds several entries; their conditions need not be identical. Equal values may be shown once. Read-outs that look alike come from different tables or passages of the source.", "data": [{"molecule": "Cc1cnc2nc1Nc1cccc(c1)COCC=CCOCc1cc(ccc1OCCN1CCCC1)N2", "note": "[Compound 3]", "values": [{"measurement": "DAI score (Fig. 6b)", "setting": "DSS-induced colitis mice; Compound 3 5 mg/kg, day 12, individual mice, 5 mg/kg", "result": "0 (6×) and 1"}, {"measurement": "Body weight (Fig. 6a)", "setting": "DSS-induced colitis mice; Compound 3 5 mg/kg, day 12, individual mice, 5 mg/kg, in g (unit assumed)", "result": "21 and 16.6 and 22.3 and 23 and 17.2 and 22.1 and 22.9"}, {"measurement": "Body weight (Fig. 6a)", "setting": "DSS-induced colitis mice; Compound 3 5 mg/kg, day 13, individual mice, 5 mg/kg, in g (unit assumed)", "result": "21.7 and 17.7 and 21.8 and 23.1 and 18 and 22.3 and 22.6"}, {"measurement": "Body weight (Fig. 6a)", "setting": "DSS-induced colitis mice; Compound 3 5 mg/kg, day 14, individual mice, 5 mg/kg", "result": "21.5 and 17.4 and 22.3 and 23.4 and 19.2 and 22.4 (2×)"}, {"measurement": "HE staining score (Fig. 6d)", "setting": "DSS-induced colitis mice; Compound 3 5 mg/kg, individual colon tissues (n = 7), 5 mg/kg", "result": "3 and 1 and 2"}, {"measurement": "symptoms in DSS-induced murine colitis", "setting": "DSS-induced colitis mice; compound 3 5 mg/kg, Fedratinib 10 mg/kg", "result": "ameliorate the symptoms"}, {"measurement": "IC50", "setting": "JAK2; JAK2, 25 μM ATP, mean ± SD, n = 3, read-out: Enzyme Inhibitory Activity (IC50)", "result": 0.006, "unit": "µM"}, {"measurement": "IC50", "setting": "JAK2; JAK2 enzyme, mean of 3 replicates, read-out: IC50/μM mean, enzyme inhibitory activity", "result": 0.006, "unit": "µM"}, {"measurement": "IC50", "setting": "JAK2; JAK2 enzyme, mean ± SD of 3 replicates, read-out: IC50/μM mean ± SD, enzyme inhibitory activity", "result": "0.006 ± 0.001", "unit": "µM"}, {"measurement": "IC50", "setting": "JAK2; JAK2 enzyme, single-replicate fits (replicates 1-3), read-out: IC50/μM (individual replicates), enzyme inhibitory activity", "result": "0.00662 µM and 0.00532 µM and 0.00569 µM"}, {"measurement": "concentration at time point (concentration-time data, Supplementary Fig. 8)", "setting": "In vivo PK study in mice; iv 5 mg/kg, 0.5 h, 5 mg/kg", "result": "112.17 and 96.91 and 108.01"}, {"measurement": "concentration at time point (concentration-time data, Supplementary Fig. 8)", "setting": "In vivo PK study in mice; iv 5 mg/kg, 1 h, 5 mg/kg", "result": "33.98 and 41.85 and 29.29"}, {"measurement": "concentration at time point (concentration-time data, Supplementary Fig. 8)", "setting": "In vivo PK study in mice; iv 5 mg/kg, 2 h, 5 mg/kg", "result": "22.85 and 22.08 and 24.61"}, {"measurement": "concentration at time point (concentration-time data, Supplementary Fig. 8)", "setting": "In vivo PK study in mice; iv 5 mg/kg, 4 h, 5 mg/kg", "result": "23.46 and 31.4 and 25.29"}, {"measurement": "concentration at time point (concentration-time data, Supplementary Fig. 8)", "setting": "In vivo PK study in mice; iv 5 mg/kg, 8 h, 5 mg/kg", "result": "17.79 and 10.67 and 14.54"}, {"measurement": "concentration at time point (concentration-time data, Supplementary Fig. 8)", "setting": "In vivo PK study in mice; iv 5 mg/kg, 24 h, 5 mg/kg", "result": "2.18 and 0 (2×)"}, {"measurement": "AUCinf", "setting": "In vivo PK study in mice; iv (5 mg/kg)", "result": 443.20, "unit": "ng·h/mL"}, {"measurement": "Cmax", "setting": "In vivo PK study in mice; iv (5 mg/kg)", "result": 351.23, "unit": "ng/mL"}, {"measurement": "T1/2", "setting": "In vivo PK study in mice; iv (5 mg/kg)", "result": 0.52, "unit": "h"}, {"measurement": "Tmax", "setting": "In vivo PK study in mice; iv (5 mg/kg)", "result": 0.083, "unit": "h"}, {"measurement": "AUCinf", "setting": "In vivo PK study in mice; po (5 mg/kg)", "result": 114.69, "unit": "ng·h/mL"}, {"measurement": "Cmax", "setting": "In vivo PK study in mice; po (5 mg/kg)", "result": 6.64, "unit": "ng/mL"}, {"measurement": "T1/2", "setting": "In vivo PK study in mice; po (5 mg/kg)", "result": 10.07, "unit": "h"}, {"measurement": "Tmax", "setting": "In vivo PK study in mice; po (5 mg/kg)", "result": 4.00, "unit": "h"}, {"measurement": "concentration at time point (concentration-time data, Supplementary Fig. 8)", "setting": "In vivo PK study in mice; po 5 mg/kg, 1 h, 5 mg/kg", "result": "2.46 and 4.26 and 2.81"}, {"measurement": "concentration at time point (concentration-time data, Supplementary Fig. 8)", "setting": "In vivo PK study in mice; po 5 mg/kg, 2 h, 5 mg/kg", "result": "3.59 and 4.51 and 5.67"}, {"measurement": "concentration at time point (concentration-time data, Supplementary Fig. 8)", "setting": "In vivo PK study in mice; po 5 mg/kg, 3 h, 5 mg/kg", "result": "4.59 and 4.64 and 5.68"}, {"measurement": "concentration at time point (concentration-time data, Supplementary Fig. 8)", "setting": "In vivo PK study in mice; po 5 mg/kg, 4 h, 5 mg/kg", "result": "6.18 and 5.41 and 8.34"}, {"measurement": "concentration at time point (concentration-time data, Supplementary Fig. 8)", "setting": "In vivo PK study in mice; po 5 mg/kg, 6 h, 5 mg/kg", "result": "4.85 and 6.09 and 5.97"}, {"measurement": "concentration at time point (concentration-time data, Supplementary Fig. 8)", "setting": "In vivo PK study in mice; po 5 mg/kg, 8 h, 5 mg/kg", "result": "4.94 and 5.49 and 4.7"}, {"measurement": "concentration at time point (concentration-time data, Supplementary Fig. 8)", "setting": "In vivo PK study in mice; po 5 mg/kg, 24 h", "result": 0}, {"measurement": "Inhibition (%)", "setting": "HEL cells; HEL cell lines, 0.0977 μM", "result": "7.532% and 3.479% and 4.355% and 9.373% and 0.491% and 6.308%"}, {"measurement": "Inhibition (%)", "setting": "HEL cells; HEL cell lines, 0.1953 μM", "result": "13.777% and 7.751% and 6.875% and 6.544% and 1.513% and 5.600%"}, {"measurement": "Inhibition (%)", "setting": "HEL cells; HEL cell lines, 0.3906 μM", "result": "19.145% and 12.682% and 3.259% and 5.522% and 6.779% and 5.600%"}, {"measurement": "Inhibition (%)", "setting": "HEL cells; HEL cell lines, 0.7813 μM", "result": "21.994% and 15.749% and 13.120% and 10.788% and 3.085% and 13.618%"}, {"measurement": "Inhibition (%)", "setting": "HEL cells; HEL cell lines, 1.5625 μM", "result": "37.004% and 30.321% and 23.090% and 24.936% and 24.700% and 25.722%"}, {"measurement": "Inhibition (%)", "setting": "HEL cells; HEL cell lines, 3.1250 μM, 3.125 µM", "result": "60.340% and 50.260% and 45.440% and 49.460% and 46.787% and 48.123%"}, {"measurement": "Inhibition (%)", "setting": "HEL cells; HEL cell lines, 6.2500 μM, 6.25 µM", "result": "81.375% and 75.240% and 74.473% and 74.140% and 73.276% and 76.577%"}, {"measurement": "Inhibition (%)", "setting": "HEL cells; HEL cell lines, 12.5000 μM, 12.5 µM", "result": "87.949% and 81.375% and 82.142% and 84.437% and 81.607% and 79.564%"}, {"measurement": "IC50", "setting": "HEL cells; HEL cell lines, mean of 2 replicates, read-out: IC50/μM mean, cellular antiproliferative activity", "result": 3.05, "unit": "µM"}, {"measurement": "IC50", "setting": "HEL cells; HEL cell lines, single-replicate fits, read-out: IC50/μM (individual replicates), cellular antiproliferative activity", "result": "3.33 µM and 2.78 µM"}, {"measurement": "IC50", "setting": "HEL cells; HEL cells, 72 h, mean ± SD, read-out: Cellular Antiproliferative Activity (IC50) HEL", "result": "3.06 ± 0.39", "unit": "µM"}]}]}
